Columns and labels:
PYR1-HAB1 = target: T1, PYR1-HAB1 (Arabidopsis thaliana, UniProt O49686); assay: PP2C activity assay, PYR1-HAB1 inhibition; assay type: biochemical; settings: dose response in triplicate, non-linear regression
T1 construct: 6xHis (N); made in house; host or cells: E. coli BL21[DE3]pLysS (stated for GST-HAB1)
T1 sequence (O49686 1-191): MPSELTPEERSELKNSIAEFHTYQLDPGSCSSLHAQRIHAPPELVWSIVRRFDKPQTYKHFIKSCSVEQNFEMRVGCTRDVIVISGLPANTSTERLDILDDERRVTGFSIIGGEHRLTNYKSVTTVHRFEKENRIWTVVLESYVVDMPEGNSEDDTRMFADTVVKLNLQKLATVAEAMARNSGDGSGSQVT
T1 sequence (Q9CAJ0 23-511 partner): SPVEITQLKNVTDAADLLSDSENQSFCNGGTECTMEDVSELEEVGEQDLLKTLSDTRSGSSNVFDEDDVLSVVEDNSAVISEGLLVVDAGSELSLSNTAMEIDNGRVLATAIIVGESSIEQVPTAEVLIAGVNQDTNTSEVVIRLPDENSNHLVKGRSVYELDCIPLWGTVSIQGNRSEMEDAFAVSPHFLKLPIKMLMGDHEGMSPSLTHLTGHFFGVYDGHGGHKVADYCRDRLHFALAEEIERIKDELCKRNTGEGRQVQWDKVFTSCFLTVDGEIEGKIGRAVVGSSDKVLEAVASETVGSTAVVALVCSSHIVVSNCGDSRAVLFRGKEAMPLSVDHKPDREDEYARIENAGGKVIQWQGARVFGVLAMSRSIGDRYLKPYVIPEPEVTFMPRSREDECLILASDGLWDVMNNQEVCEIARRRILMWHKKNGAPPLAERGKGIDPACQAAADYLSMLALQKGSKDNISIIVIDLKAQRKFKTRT
From the text: (§1) The protein HAB1, a type 2 protein phosphatase (PP2C), is inhibited by PYR/PYL proteins in dependence of abscisic acid or other agonists. The potency of an agonist correlates with the level of inhibition of the PP2C, and therefore the IC50 (receptor-HAB1) can be used to compare the relative activity of different chemical analogues. Since inhibition of PP2C correlates to inhibition of seed-germination and increase in plant water-use efficiency, it serves as a powerful tool to quantify biological potential of a chemical acting as an analogue of abscisic acid.
(§2) HAB1 and PYL proteins were expressed and purified as described in Park et al. ((2009) Science 324(5930):1068-1071), with minor modifications. GST-HAB1 was produced by expression in BL21[DE3]pLysS host cells with an expression clone containing the HAB1 cDNA cloned into pGex-2T. Transformed E. coli cells were pre-cultured overnight, transferred to LB medium and cultured at 30° C. to culture A600 of ˜0.5 OD units. The culture was then cooled on ice and MnCl2 added to 4 mM and IPTG added to 0.3 mM. After 16 hours incubation at 15° C., cells were harvested and recombinant proteins were purified on glutathione agarose as described in Park et al. To obtain 6×His-PYL receptor fusion proteins, we used expression constructs previously described by Okamoto et al. 2013, (PNAS 110(29): 12132-12137).
(§3) PP2C activity assays using recombinant receptors and PP2Cs were carried out as follows: purified proteins were pre-incubated in 160 μl assay buffer containing (100 mM Tris-HCl-pH7.9, 100 mM NaCl, 3 μg bovine serum albumin and 0.1% 2-mercaptoethanol), 1 mM MnCl2 with carrier solvent (DMSO), quinabactin or quinabactin analogs (compounds of the present invention) for 30 minutes at room temperature. Reactions were started by adding 40 μL of a reaction solution containing 25 mM 4-nitrophenyl phosphate in assay buffer, after which absorbance measurements were immediately collected (405 nm) using a Wallac plate reader. […] Inhibition is indicated by reduced PP2C activity, which is expressed as a percentage of the control PP2C activity values that were obtained from assays containing carrier solvent instead but no test compound.

PYL2-HAB1 = target: T2, PYL2-HAB1 (Arabidopsis thaliana, UniProt O80992); assay: PP2C activity assay, PYL2-HAB1 inhibition; assay type: biochemical; settings: dose response in triplicate, non-linear regression
T2 construct: 6xHis (N); made in house; host or cells: E. coli BL21[DE3]pLysS (stated for GST-HAB1)
T2 sequence (O80992 1-190): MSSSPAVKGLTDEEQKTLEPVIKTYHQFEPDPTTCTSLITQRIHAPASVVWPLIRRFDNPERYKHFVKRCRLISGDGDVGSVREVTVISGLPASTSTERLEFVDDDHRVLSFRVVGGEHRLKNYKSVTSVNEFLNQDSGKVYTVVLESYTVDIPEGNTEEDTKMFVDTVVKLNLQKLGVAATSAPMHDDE
T2 sequence (Q9CAJ0 23-511 partner): T1 sequence (Q9CAJ0 23-511 partner)
From the text: as §1, §2, §3

| Compound | IC50 (PYR1-HAB1) [nM] | IC50 (PYL2-HAB1) [nM] |
| --- | --- | --- |
| C=CCN1C(=O)CC(C)c2cc(NS(=O)(=O)Cc3ccc(C)cc3)cc(F)c21 (centres unmarked) [HQ31] | 164 | 52 |
| CCCN1C(=O)CCc2c1ccc(NS(=O)(=O)Cc1ccc(C)cc1)c2F [HQ46] | 694 | 1460 |
| CCCN1C(=O)CCc2cc(NS(=O)(=O)Cc3ccc(C)cc3)cc(Br)c21 [HQ40] | 165 | 239 |
| CCN1C(=O)CC(C)c2cc(NS(=O)(=O)Cc3ccc(C(F)(F)F)cc3)cc(F)c21 (centres unmarked) [HQ44] | 2370 | 250 |
| COCc1ccc(CS(=O)(=O)Nc2cc(F)c3c(c2)C(C)CC(=O)N3C(C)C)cc1 (centres unmarked) [HQ37] | 227 | 33 |
| CCN1C(=O)CC(C)c2cc(NS(=O)(=O)Cc3ccc(Cl)cn3)cc(F)c21 (centres unmarked) [HQ54] | 512 | 234 |
| CCN1C(=O)CC(C)c2cc(NS(=O)(=O)Cc3ccc(C)cc3F)cc(F)c21 (centres unmarked) [HQ48] | 56 | 23 |
| C=CCN1C(=O)CC(C)c2cc(NS(=O)(=O)Cc3ccc(CC)cc3)cc(F)c21 (centres unmarked) [HQ33] | 204 | 61 |
| CCN1C(=O)CC(C)c2cc(NS(=O)(=O)Cc3ccc(C)cn3)cc(F)c21 (centres unmarked) [HQ53] | 153 | 160 |
| C=CCN1C(=O)CCc2cc(NS(=O)(=O)Cc3ccc(C)cc3)cc(F)c21 [HQ28] | 62.3 | 401 |
| CCc1ccc(CS(=O)(=O)Nc2cc(F)c3c(c2)C(C)CC(=O)N3CC)cc1 (centres unmarked) [HQ35] | 37 | 12 |
| CCN1C(=O)CC(C)c2cc(NS(=O)(=O)Cc3ccc(Cl)cc3Cl)cc(F)c21 (centres unmarked) [HQ43] | > 10000 | 2010 |
| CCN1C(=O)CC(C)c2cc(NS(=O)(=O)Cc3ccc(COC)cc3)cc(F)c21 (centres unmarked) [HQ38] | 103 | 26 |
| CCN1C(=O)CC(C)c2cc(NS(=O)(=O)Cc3ccc(Cl)s3)cc(F)c21 (centres unmarked) [HQ57] | 953 | 94 |
| C=CCN1C(=O)CC(C)c2cc(NS(=O)(=O)Cc3ccc(COC)cc3)cc(F)c21 (centres unmarked) [HQ36] | 126 | 32 |
| CCc1ccc(CS(=O)(=O)Nc2cc(F)c3c(c2)C(C)CC(=O)N3C(C)C)cc1 (centres unmarked) [HQ34] | 462 | 26 |
| CCN1C(=O)CC(C)c2cc(NS(=O)(=O)Cc3ccc(C)cc3Br)cc(F)c21 (centres unmarked) [HQ50] | > 10000 | 4470 |
| CCN1C(=O)CC(C)c2cc(NS(=O)(=O)Cc3ccc(C)cc3C)cc(F)c21 (centres unmarked) [HQ51] | > 10000 | 930 |
| Cc1ccc(CS(=O)(=O)Nc2cc(F)c3c(c2)C(C)CC(=O)N3C2CC2)cc1 (centres unmarked) [HQ39] | 1260 | 77 |

Source: patent US11332443B2, “Derivatives of halo quinabactin” (THE REGENTS OF THE UNIVERSITY OF CALIFORNIA, priority 2015, dated 2022)
